Data: patent publication US7064218B2, “Aromatic compounds and poly(oxyalkylene) containing aromatic compounds possessing antibacterial, antifungal or antitumor activity” (Genelabs Technologies, Inc., priority 2001, dated 2006)

Legend:
[1] = test system: bacteria; assay: Minimum Inhibitory Concentration (MIC) assay, bacteria; assay type: cell-based; conditions: antibacterial; complete inhibition of visible growth
Description: (§1) These assays are adapted from NCCLS protocols M7-A4 and M27-A (NCCLS vol 17:9 and vol 17:2) as modified by Sandven, S. Clin. Micro. (1999) 37:12, p. 3856–3859. MIC values for Aspergillus fumigatus were determined using NCCLS protocol M38-P.
(§2) All compounds were dissolved in 100% DMSO to a stock concentration of 10 mM and use fresh or stored at −80° C. Stock compounds were kept frozen until needed and used freshly with no more then one freeze-thaw cycle. When used for test purposes, compounds were diluted in the appropriate media depending on the organism being tested.
(§3) For yeast and aspergillus species, seven 1:2 serial dilutions of compound in appropriate media buffered with MOPS at pH 7.0 were prepared such that the final starting test compound concentrations were 50.0 uM for yeast and 50 uM aspergillus species. For bacteria, dilutions were made in growth media used for the particular bacteria being tested.
Inoculums are made in the same manner as yeast except all dilutions are made in normal saline, with a final dilution of 1:200 and an inoculum of 10 μL.

[2] = test system: yeast and aspergillus species; assay: Minimum Inhibitory Concentration (MIC) assay, yeast and filamentous fungi; assay type: cell-based, Candida albicans; Aspergillus fumigatus; conditions: antifungal; complete inhibition of visible growth, 48 h at 35 C
Description: as §1, §2, §3
Five well-separated colonies from a 24 hr Sabouraud Dextrose plate incubated at 35 C were picked and resuspended into 5.0 ml of normal saline. The O.D.530 was read and the culture was adjusted to 0.5 McFarland units with normal saline. A 1:2000 dilution was made with RPMI 1640 media buffered with MOPS at pH 7.0 and 100 μL of this inoculum preparation was added to an equal volume of test compound-containing media. 25 μL of the redox indicator Alamar Blue (Biosource International) was added to each well and the plates were incubated for 48 h at 35 C. Wells having yeast growth changed color from blue to pink.
Inoculums are made by incubating Aspergillus fumigatus for 7 days at 35 C on potato dextrose agar slants. Slants are then covered with 1.0 ml of 0.85% saline, one drop of Tween 20 is added and colonies are teased with a sterile transfer loop to create a suspension which is allowed to sit for 5 min so heavier particles can drop out. The upper suspension is separated and adjusted to an optical density of 0.09 to 0.11. The resulting suspension is diluted 1:50 which yields 2× the final inoculum needed. Micro dilution trays are prepared as with yeast and incubated for 48 h at 35 C. For our purposes the MIC is defined as the lowest compound concentration at which no visible growth is observed after 48 h.

Compound | MIC [1] [µM] | MIC [2] [µM]
N=C(N)CNC(=O)c1cc(NC(=O)c2ccc(C(=O)Nc3cc(C(=O)NCC(=N)N)n(CC4CC4)c3)cc2)cn1CC1CC1 [Compound 284, N,N′-Bis-[5-(carbamimidoylmethylcarbamoyl)-1-cyclopropylmethyl-1H-pyrrol-3-yl]-terephthalamide] | < 45.5 | < 45.5
CCCCn1cc(NC(=O)c2ccc(C(=O)Nc3cc(C(=O)NCC(=N)N)n(CCCC)c3)cc2)cc1C(=O)NCC(=N)N [Compound 287, N,N′-Bis-[1-butyl-5-(carbamimidoylmethyl-carbamoyl)-1H-pyrrol-3-yl]terephthalamide] | < 45.5 | < 45.5
CCCCn1cc(NC(=O)c2ccc(C(=O)Nc3cc(C(=O)NCC(=N)NC)n(CCCC)c3)cc2)cc1C(=O)NCC(=N)NC [Compound 289, N,N′-Bis-[1-butyl-5-(methylcarbamimidoylmethyl-carbamoyl)-1H-pyrrol-3-yl]terephthalamide] | < 45.5 | < 45.5
CCCCn1cc(NC(=O)c2ccc(C(=O)Nc3cc(C(=O)NCC(=N)NCC)n(CCCC)c3)cc2)cc1C(=O)NCC(=N)NCC [Compound 290, N,N′-Bis-[1-butyl-5-(ethylcarbamimidoylmethyl-carbamoyl)-1H-pyrrol-3-yl]terephthalamide] | < 45.5 | < 45.5
N=C(N)CNC(=O)c1cc(NC(=O)c2ccc(C(=O)Nc3cc(C(=O)NCC(=N)N)n(CC4CC4)c3)nc2)cn1CC1CC1 [Compound 292, Pyridine-2,5-dicarboxylic acid bis{[5-(carbamimidoylmethyl-carbamoyl)-1-cyclopropylmethyl-1H-pyrrol-3-yl]-amide}] | < 45.5 | < 45.5
N=C(N)CNC(=O)c1cc(NC(=O)c2cnc(C(=O)Nc3cc(C(=O)NCC(=N)N)n(CC4CC4)c3)cn2)cn1CC1CC1 [Compound 293, Pyrazine-2,5-dicarboxylic acid bis-{[5-(carbamimidoylmethyl-carbamoyl)-1-cyclopropylmethyl-1H-pyrrol-3-yl]-amide}] | < 45.5 | < 45.5
N=C(N)CNC(=O)c1cc(NC(=O)C2=CC=C(C(=O)Nc3cc(C(=O)NCC(=N)N)n(CC4CC4)c3)CC2)cn1CC1CC1 [Compound 294, Cyclohexa-1,3-diene-1,4-dicarboxylic acid bis-{[5-(carbamimidoylmethyl-carbamoyl)-1-cyclopropylmethyl-1H-pyrrol-3-yl]-amide}] | < 45.5 | < 45.5
N=C(N)CNC(=O)c1cc(NC(=O)c2cc(C(=O)Nc3cc(C(=O)NCC(=N)N)n(CC4CC4)c3)[nH]n2)cn1CC1CC1 [Compound 295, 1H-Pyrazole-3,5-dicarboxylic acid bis-{[5-(carbamimidoylmethyl-carbamoyl)-1-cyclopropylmethyl-1H-pyrrol-3-yl]-amide}] | < 45.5 | < 45.5
